Reference: paper PMC11708041, “Structural basis of a microbial trimethylamine transporter” (mBio, 2024)

Experiments:
TmaT = biological target: T1, TmaT (Myroides profundi, UniProt A0A0B5RUB0); experiment: microscale thermophoresis; format: binding
T1 construct: full-length, 529 residues, C-terminal 8xHis tag (pET-22b), expressed in E. coli C43(DE3), DDM-solubilised; homotrimer
T1 sequence (A0A0B5RUB0 1-529): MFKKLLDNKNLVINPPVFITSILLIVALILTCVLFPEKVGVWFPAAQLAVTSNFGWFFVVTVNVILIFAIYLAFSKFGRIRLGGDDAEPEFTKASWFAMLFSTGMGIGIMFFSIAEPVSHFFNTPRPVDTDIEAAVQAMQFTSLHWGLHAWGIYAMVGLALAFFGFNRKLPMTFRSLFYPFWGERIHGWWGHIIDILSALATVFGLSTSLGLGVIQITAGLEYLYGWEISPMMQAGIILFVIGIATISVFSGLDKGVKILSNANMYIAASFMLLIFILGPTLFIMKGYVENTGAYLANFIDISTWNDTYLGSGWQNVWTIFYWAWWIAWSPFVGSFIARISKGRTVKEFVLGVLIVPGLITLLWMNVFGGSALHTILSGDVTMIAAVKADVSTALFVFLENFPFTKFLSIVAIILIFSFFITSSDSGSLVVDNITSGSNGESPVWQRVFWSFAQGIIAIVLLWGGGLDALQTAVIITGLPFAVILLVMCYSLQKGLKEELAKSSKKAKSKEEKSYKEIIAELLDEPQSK
From the text: microscale thermophoresis on TmaT

[1] = biological target: the molecule itself; experiment: cryo-EM structure; single-particle cryo-EM of purified TmaT (about 8 mg/mL, in DDM); apo TmaT, and with 2 mM or 5 mM TMA; homotrimer

Molecule: CN(C)C [TMA]
- Kd (TmaT): 49 ± 9.4 µM

B1: TmaT, TMA transporter of Myroides profundi D25 (natural protein, UniProt A0A0B5RUB0 1-529, looked up)
chain: T1 sequence (A0A0B5RUB0 1-529)
notes: TmaT, trimethylamine transporter of the betaine-choline-carnitine transporter (BCCT) family, Myroides profundi D25; full-length tmaT, 1,590 nucleotides encoding a 529-amino-acid polypeptide; no removal of the tag is described; Homotrimer in the cryo-EM structures; also called recombinant TmaT; WT TmaT
- stoichiometry N [1]: 3
